Data as given in patent US20240058335A1, “METHODS FOR TREATMENT OF CANCER USING ABL INHIBITORS AND DRUGS TARGETING THE MEVALONATE PATHWAY” (Duke University, priority 2021, published 2024).

Experiments:
Type in all cases: cell-based, human
H460 cells = test: Cell viability dose-response assay (CellTiter-Glo), IC50 calculation; conditions: H460; dose-response assay; read-out: Calculated IC50
[1] = system: PC9, PC9 GR4 and H460 cells; test: MitoSOX staining, mitochondrial ROS by FACS; conditions: EGFR mutant PC9 and PC9 GR4 cells, IC50 doses, 24 hours
PC9 BrM3 cells = test: Cell viability dose-response assay (CellTiter-Glo), IC50 calculation; conditions: PC9 BrM3; dose-response assay; read-out: Calculated IC50

Compound: O=C(NCCO)c1cccc(-c2cc(Nc3ccc(OC(F)(F)F)cc3)ncn2)c1 [GNF5]
- IC50 (H460 cells): 15 µM
- mitochondrial reactive oxygen species (MitoROS) levels [1]: increased
- IC50 (PC9 BrM3 cells): 10 µM
